Read-outs that look alike come from different tables or passages of the source.
Target: recombinant SARS-CoV-2 M^pro (Severe acute respiratory syndrome coronavirus 2 (2019-nCoV) (SARS-CoV-2), UniProt P0DTD1)
Assay: Inhibition of SARS-CoV-2 M^pro enzyme activity (fluorescent substrate assay)
Format: biochemical
Conditions: inhibition of SARS-CoV-2 M^pro enzyme activity, read-out: IC50

Row | Compound | IC50 (values in nM) | IC50 (values given in μM)
1 | O=C(NCc1ccccn1)C(=O)[C@@H](Cc1ccccc1)NC(=O)C1(NC(=O)C2CC3CCC2C3)CCC1 (stereo partly drawn) [Compound 214] | 17.4 ± 0.5 nM | –
2 | CC(C)(OCc1ccc(F)c(F)c1)C(=O)N[C@H](Cc1ccccc1)C(=O)C(=O)NCc1ccccn1 [Compound 20] | 15.2 ± 0.2 nM | –
3 | O=C(NCc1nccs1)C(=O)[C@@H](Cc1ccc(Cl)c(Cl)c1)NC(=O)c1ccccc1 [Compound 470] | – | 2030 ± 70 nM
4 | O=C(NCc1ccccn1)C(=O)[C@@H](Cc1ccccc1)NC(=O)[C@H](NC(=O)C1CCC(F)(F)CC1)C1CCCC1 [Compound 226] | 16 ± 0.8 nM | –
5 | C[C@@H](NS(=O)(=O)c1cccnc1)C(=O)N[C@H](Cc1ccccc1)C(=O)C(=O)NCc1ccccn1 [Compound 332] | 888.3 ± 1.2 nM | –
6 | C[C@@H](NC(=O)Cc1cc(OC(F)(F)F)ccc1F)C(=O)N[C@H](Cc1ccccc1)C(=O)C(=O)NCc1nccs1 [Compound 382] | – | 15000 ± 1300 nM
7 | O=C(CCC(F)(F)F)NC1(C(=O)N[C@H](Cc2ccccc2)C(=O)C(=O)NCc2ccccn2)CCC1 [Compound 213] | 41.4 ± 0.8 nM | –
8 | O=C(NCc1cscn1)C(=O)[C@@H](Cc1ccccc1)NC(=O)[C@H]1CC(F)(F)CN1C(=O)C1CCC(F)(F)CC1 [Compound 433] | 749.6 ± 1.1 nM | –
9 | O=C(NCc1cscn1)C(=O)[C@@H](Cc1ccccc1)NC(=O)[C@H]1CC(F)(F)CN1C(=O)C1CCCC(F)(F)C1 (stereo partly drawn) [Compound 434] | – | 2050 ± 20 nM
10 | C[C@@H](NC(=O)c1cccc(F)c1)C(=O)N[C@H](Cc1ccccc1)C(=O)C(=O)NCc1ccccn1 [Compound 139] | 24.3 ± 2.3 nM | –
11 | O=C(NCc1ccccn1)C(=O)[C@@H](Cc1ccccc1)NC(=O)C1(NC(=O)N2CCC(F)(F)CC2)CC1 [Compound 300] | – | 2430 ± 40 nM
12 | COC[C@@H](NC(=O)C1CCC(F)(F)CC1)C(=O)N[C@H](Cc1ccccc1)C(=O)C(=O)NCc1ccccn1 [Compound 222] | 16.5 ± 1.5 nM | –
13 | O=C(NCc1ccccn1)C(=O)[C@@H](Cc1ccccc1)NC(=O)[C@H]1CCCCN1C(=O)[C@H]1CC[C@@H](C(F)(F)F)CC1 [Compound 281] | 14.8 ± 0.1 nM | –
14 | O=C(CC1CC1(F)F)NCC(=O)N[C@H](Cc1ccccc1)C(=O)C(=O)NCc1cscn1 (stereo partly drawn) [Compound 425] | 36.5 ± 0.3 nM | –
15 | CC[C@@H](C)C(NC(=O)c1ccc(F)cc1)C(=O)N[C@H](Cc1ccccc1)C(=O)C(=O)NCc1ccccn1 (stereo partly drawn) [Compound 251] | 34.2 ± 0.5 nM | –
16 | N#Cc1cc(F)cc(N2CC(=O)N(CC(=O)N[C@H](Cc3ccccc3)C(=O)C(=O)NCc3nccs3)C2=O)c1 [Compound 518, (R)-3-(2-(3-(3-cyano-5-fluorophenyl)-2,5-dioxoimidazolidin-1-yl)acetylamino)-2-oxo-4-phenyl-N-(thiazole-2-ylmethyl) butyramide] | 248.5 ± 1.4 nM | –
17 | O=C(NCc1ccccn1)C(=O)[C@@H](Cc1ccccc1)NC(=O)C1(NC(=O)C2CCC(O)(C(F)(F)F)CC2)CCC1 (stereo partly drawn) [Compound 205] | 23.9 ± 0.9 nM | –
18 | O=C(NCc1nccs1)C(=O)[C@@H](Cc1cc(F)c(F)cc1F)NC(=O)c1ccccc1 [Compound 467] | – | 3370 ± 180 nM
19 | O=C(NCc1ccccn1)C(=O)[C@@H](Cc1ccccc1)NC(=O)C1(NC(=O)C2CCC(F)(F)CC2)CCOC1 (stereo partly drawn) [Compound 228] | 18.1 ± 1.1 nM | –
20 | CC(C)(NC(=O)C(=O)c1ccccc1)C(=O)N[C@H](Cc1ccccc1)C(=O)C(=O)NCc1ccccn1 [Compound 179] | 14.5 ± 1.9 nM | –
21 | COc1ccc(OC(C)C(=O)N[C@H](Cc2ccccc2)C(=O)C(=O)NCc2ccccn2)cc1 (stereo partly drawn) [Compound 57] | 351 ± 6.8 nM | –

Row | Compound | IC50 (values in nM) | IC50 (values given in μM)
22 | O=C(NCc1cscn1)C(=O)[C@@H](Cc1ccccc1)NC(=O)[C@H]1COCCN1C(=O)CC1CC1(F)F (stereo partly drawn) [Compound 435] | 58.2 ± 1.3 nM | –
23 | C[C@@H](NCC1CCC(F)(F)CC1)C(=O)N[C@H](Cc1ccccc1)C(=O)C(=O)NCc1nccs1 [Compound 554] | 890.1 ± 1.3 nM | –
24 | O=C(CNC(=O)[C@@H]1C[C@@H]2[C@H](C1)C2(F)F)N[C@H](Cc1ccccc1)C(=O)C(=O)NCc1nccs1 [Compound 389] | 110 ± 1.6 nM | –
25 | COc1ccc(OCC(=O)N[C@H](C)C(=O)N[C@H](Cc2ccccc2)C(=O)C(=O)NCc2ccccn2)cc1 [Compound 92] | 26.6 ± 0.4 nM | –
26 | O=C(Cc1noc(-c2ccc(F)c(F)c2)n1)N[C@H](Cc1ccccc1)C(=O)C(=O)NCc1nccs1 [Compound 516, (R)-3-(2-(5-(3,4-difluorophenyl)-1,2,4-oxadiazol-3-yl)acetylamino)-2-oxo-4-phenyl-N-(thiazole-2-ylmethyl)butyramide] | 33 ± 1.9 nM | –
27 | O=C(CC1CCCC1)NC1(C(=O)N[C@H](Cc2ccccc2)C(=O)C(=O)NCc2ccccn2)CCC1 [Compound 197] | 13.8 ± 0.8 nM | –
28 | O=C(NCc1nccs1)C(=O)[C@@H](Cc1ccccc1F)NC(=O)c1ccccc1 [Compound 464] | – | 3500 ± 230 nM
29 | O=C(NCc1ccccn1)C(=O)[C@@H](Cc1ccccc1)NC(=O)[C@H]1C[C@H]2C[C@H]2N1C(=O)C1CCC(F)(F)CC1 [Compound 269] | 19.6 ± 0.4 nM | –
30 | C[C@@H](NC(=O)C1(c2ccccc2)CC1)C(=O)N[C@H](Cc1ccccc1)C(=O)C(=O)NCc1ccccn1 [Compound 74] | 23.3 ± 0.4 nM | –
31 | O=C(CNC(=O)c1cnccn1)N[C@H](Cc1ccccc1)C(=O)C(=O)NCc1nccs1 [Compound 478] | – | 3620 ± 270 nM
32 | O=C(CNC(=O)[C@@H]1C[C@@H]2[C@H](C1)C2(F)F)N[C@H](Cc1ccccc1)C(=O)C(=O)NCc1cscn1 [Compound 424] | 20.7 ± 0.2 nM | –
33 | C[C@@H](NC(=O)C1CCC(C(F)(F)F)CC1)C(=O)N[C@H](Cc1ccccc1)C(=O)C(=O)NCc1ccccn1 (stereo partly drawn) [Compound 110] | 31.3 ± 0.1 nM | –
34 | O=C(CNC(=O)c1ccccc1)N[C@H](Cc1ccccc1)C(=O)C(=O)NCc1nccs1 [Compound 477] | – | 1860 ± 40 nM
35 | C[C@@H](NC(=O)C1CCC(F)(F)CC1)C(=O)N[C@H](Cc1ccccc1)C(=O)C(=O)NCc1cscn1 [Compound 357] | 22.3 ± 0.9 nM | –
36 | O=C(NCc1ccco1)C(=O)[C@@H](Cc1ccccc1)NC(=O)c1ccccc1 [Compound 456] | – | 37200 ± 510 nM
37 | O=C(CNC(=O)c1cccc(F)c1)N[C@H](Cc1ccccc1)C(=O)C(=O)NCc1nccs1 [Compound 482] | 538.2 ± 4.3 nM | –
38 | O=C(N[C@@H](C1CC1)C(F)(F)F)NC1(C(=O)N[C@H](Cc2ccccc2)C(=O)C(=O)NCc2ccccn2)CCC1 [Compound 306] | 19.3 ± 1 nM | –
39 | C[C@@H](NC(=O)CC1CCC(F)(F)CC1)C(=O)N[C@H](Cc1ccccc1)C(=O)C(=O)NCc1cscn1 [Compound 419] | 9.8 ± 0.1 nM | –
40 | C[C@@H](NC(=O)c1ccc(F)cc1)C(=O)N[C@H](Cc1ccccc1)C(=O)C(=O)NCc1ccccn1 [Compound 140] | 15.5 ± 1 nM | –
41 | COC[C@@H](NC(=O)CC1CC1(F)F)C(=O)N[C@H](Cc1ccccc1)C(=O)C(=O)NCc1nccs1 (stereo partly drawn) [Compound 396] | 48.8 ± 0.4 nM | –
42 | COC[C@@H](NC(=O)CC1CCC(F)(F)CC1)C(=O)N[C@H](Cc1ccccc1)C(=O)C(=O)NCc1nccs1 [Compound 394] | 12.4 ± 1.4 nM | –

Row | Compound | IC50 (values in nM) | IC50 (values given in μM)
43 | C[C@@H](NC(=O)CC1CC(F)(F)C1)C(=O)N[C@H](Cc1ccco1)C(=O)C(=O)NCc1ccccn1 [Compound 364] | 75.1 ± 0.1 nM | –
44 | O=C(NCc1nccs1)C(=O)[C@@H](Cc1ccccc1)NC(=O)C1(n2ccc(C3CCC(F)(F)CC3)n2)CC1 [Compound 512] | 22.1 ± 0.5 nM | –
45 | C[C@@H](OCc1cc(F)cc(Cl)c1)C(=O)N[C@H](Cc1ccccc1)C(=O)C(=O)NCc1ccccn1 [Compound 15] | 9.8 ± 0.1 nM | –
46 | C[C@@H](NC(=O)c1ccn(-c2ccccc2)n1)C(=O)N[C@H](Cc1ccccc1)C(=O)C(=O)NCc1nccs1 [Compound 381] | 416.8 ± 4 nM | –
47 | O=C(CC1CCC(F)(F)CC1)N[C@H](CC1CCCCC1)C(=O)N[C@H](Cc1ccccc1)C(=O)C(=O)NCc1ccccn1 [Compound 236] | 41.4 ± 0.1 nM | –
48 | C[C@@H](NC(=O)COc1ccc2ccccc2c1)C(=O)N[C@H](Cc1ccccc1)C(=O)C(=O)NCc1ccccn1 [Compound 91] | 48.4 ± 2 nM | –
49 | C[C@@H](NC(=O)C1CCC(F)(F)CC1)C(=O)NCC(=O)C(=O)NCc1ccccn1 [Compound 334] | – | > 5000 nM
50 | O=C(NCc1ccccn1)C(=O)[C@@H](Cc1ccccc1)NC(=O)[C@@]1(NC(=O)C2CCC(F)(F)CC2)C[C@H]1C(F)F [Compound 233] | 10.3 ± 0.3 nM | –
51 | C[C@@H](NC(=O)COc1cccc(F)c1)C(=O)N[C@H](Cc1ccccc1)C(=O)C(=O)NCc1ccccn1 [Compound 93] | 28.8 ± 1 nM | –
52 | O=C(NCc1ccccn1)C(=O)[C@@H](Cc1ccccc1)NC(=O)[C@H]1Cc2ccccc2CN1C(=O)[C@@H](NC(=O)c1cnccn1)C1CCCCC1 [Compound 271] | 11.5 ± 0.1 nM | –
53 | C[C@@H](NC(=O)c1ccc(Cl)c(Cl)c1)C(=O)N[C@H](Cc1ccccc1)C(=O)C(=O)NCc1ccccn1 [Compound 99] | 27.8 ± 1.1 nM | –
54 | O=C(Cn1cc(-c2ccc(OC(F)(F)F)cc2)cn1)N[C@H](Cc1ccccc1)C(=O)C(=O)NCc1nccs1 [Compound 495] | – | 2270 ± 90 nM
55 | O=C(CNC(=O)C1CCCCC1)N[C@H](Cc1ccccc1)C(=O)C(=O)NCc1ccccn1 [Compound 445] | 21.8 ± 0.3 nM | –
56 | O=C(NCc1nccs1)C(=O)[C@@H](Cc1ccccc1)NC(=O)C1(NC(=O)C2CCC(F)(F)CC2)CC(F)(F)C1 [Compound 540] | 26.9 ± 0.1 nM | –
57 | CC(C)C(Oc1ccc(Cl)cc1)C(=O)N[C@H](C)C(=O)N[C@H](Cc1ccccc1)C(=O)C(=O)NCc1ccccn1 (stereo partly drawn) [Compound 83] | 6.7 ± 0.1 nM | –
58 | C[C@@H](NC(=O)N1CC2(C1)CC(F)(F)C2)C(=O)N[C@H](Cc1ccccc1)C(=O)C(=O)NCc1ccccn1 [Compound 298] | 14.9 ± 0.1 nM | –
59 | CC(C)(C)C[C@@H](NC(=O)C1CCC(F)(F)CC1)C(=O)N[C@H](Cc1ccccc1)C(=O)C(=O)NCc1ccccn1 [Compound 224] | 25.8 ± 1.3 nM | –
60 | O=C(NCc1ccccn1)C(=O)[C@@H](Cc1ccccc1)NC(=O)C1(NC(=O)c2cnccn2)CC1 [Compound 158] | 252 ± 9 nM | –
61 | CC(C)(C)C(NC(=O)C1CCC(F)(F)CC1)C(=O)N[C@H](Cc1ccccc1)C(=O)C(=O)NCc1ccccn1 (stereo partly drawn) [Compound 237] | 132 ± 4.4 nM | –
62 | C[C@@H](NC(=O)CC1CCOC(C)(C)C1)C(=O)N[C@H](Cc1ccccc1)C(=O)C(=O)NCc1ccccn1 (stereo partly drawn) [Compound 136] | 96.5 ± 2.2 nM | –
63 | CC(C)(NC(=O)c1ccc2c(c1)OC(F)(F)O2)C(=O)N[C@H](Cc1ccccc1)C(=O)C(=O)NCc1ccccn1 [Compound 182] | 22.4 ± 0.5 nM | –

From patent US20250064789A1, “KETOAMIDE DERIVATIVES AND PHARMACEUTICAL USES THEREOF” (priority 2022, published 2025)
